Test results from patent publication US7618960B2, “Morpholine type cinnamide compound” (Eisai R&D Management Co., Ltd., priority 2005, dated 2009).

tested on: Aβ42 production; test: Quantification of Aβ peptide in culture of neurons from rat fetus brain (Aβ ELISA); type: cell-based; conditions: Neuron, 72 h; rat primary neuronal culture (cerebral cortex, embryonic day 18 Wistar rats); medium collected three days after addition of compound; Aβx-42 ELISA; read-out: Activity for reducing Aβ42 production IC50
Protocol: Quantification of Aβ Peptide in Culture of Neurons from Rat Fetus Brain
(1) Rat Primary Neuronal Culture
Primary neuronal cultures were prepared from the cerebral cortex of embryonic day 18 Wistar rats (Charles River Japan, Yokohama, Japan). Specifically, the embryos were aseptically removed from pregnant rats under ether anesthesia. The brain was isolated from the embryo and immersed in an ice-cold L-15 medium (Invitrogen Corp. Cat #11415-064, Carlsbad, Calif., USA, or SIGMA L1518, for example). The cerebral cortex was collected from the isolated brain under a stereoscopic microscope. The cerebral cortex fragments collected were enzymatically treated in an enzyme solution containing 0.25% trypsin (Invitrogen Corp. Cat #15050-065, Carlsbad, Calif., USA) and 0.01% DNase (Sigma D5025, St. Louis, Mo., USA) at 37° C. for 30 minutes to disperse the cells. Here, the enzymatic reaction was stopped by adding inactivated horse serum to the solution. The enzymatically treated solution was centrifuged at 1,500 rpm for five minutes to remove the supernatant. 5 to 10 ml of a medium was added to the resulting cell mass. Neurobasal medium (Invitrogen Corp. Cat #21103-049, Carlsbad, Calif., USA) supplemented with 2% B27 supplement (Invitrogen Corp. Cat #17504-044, Carlsbad, Calif., USA), 25 μM 2-mercaptoethanol (2-ME, WAKO Cat #139-06861, Osaka, Japan), 0.5 mM L-glutamine (Invitrogen Corp. Cat #25030-081, Carlsbad, Calif., USA), and Antibiotics-Antimycotics (Invitrogen Corp. Cat #15240-062, Carlsbad, Calif., USA) was used as the medium (Neurobasal/B27/2-ME). However, the above Neurobasal medium not supplemented with 2-ME (Neurobasal/B27) was used for the assay. The cells were redispersed by mild pipetting of the cell mass to which the medium was added. The cell dispersion was filtered through a 40-μm nylon mesh (Cell Strainer, Cat #35-2340, Becton Dickinson Labware, Franklin Lakes, N.J., USA) to remove the remaining cell mass, and thus a neuronal cell suspension was obtained. The neuronal cell suspension was diluted with the medium and then plated in a volume of 100 μl/well at an initial cell density of 5×10^5 cells/cm^2 in a 96-well polystyrene culture plate pre-coated with poly-L or D-lysine (Falcon Cat #35-3075, Becton Dickinson Labware, Franklin Lakes, N.J., USA coated with poly-L-lysine using the method shown below, or BIOCOAT™ cell environments Poly-D-lysine cell ware 96-well plate, Cat #35-6461, Becton Dickinson Labware, Franklin Lakes, N.J., USA). Poly-L-lysine coating was carried out as follows. 100 μg/ml of a poly-L-lysine (SIGMA P2636, St. Louis, Mo., USA) solution was aseptically prepared with a 0.15 M borate buffer (pH 8.5). 100 μl/well of the solution was added to the 96-well polystyrene culture plate and incubated at room temperature for one or more hours or at 4° C. overnight or longer. The coated 96-well polystyrene culture plate was washed with sterile water four or more times, and then dried or rinsed with, for example, sterile PBS or medium, and used for cell plating. The plated cells were cultured in the culture plate at 37° C. in 5% […]-95% air for one day. Then, the total amount of the medium was replaced with a fresh Neurobasal™/B27/2-ME medium, and then the cells were cultured for further three days.
The drug was added to the culture plate on Day 4 of culture as follows. The total amount of the medium was removed from the wells, and 180 μl/well of Neurobasal medium not containing 2-ME and containing 2% B-27 (Neurobasal/B27) was added thereto. A solution of the test compound in dimethyl sulfoxide (hereinafter abbreviated as DMSO) was diluted with Neurobasal/B27 so that the initial concentration was at 10-fold of the final concentration. 20 μl/well of the dilution was added to and sufficiently mixed with the medium. The final DMSO concentration was 1% or less. Only DMSO was added to the control group.
The cells were cultured for three days after addition of the compound, and the total amount of the medium was collected. […]

With `COc1cc(/C=C2\O[C@@H](C)CN([C@H](c3cc(F)c(F)c(F)c3)[C@@H](C)O)C2=O)ccc1-n1cnc(C)c1` [Example 26, (Z)-(S)-4-[(1R,2R)-2-hydroxy-1-(3,4,5-trifluorophenyl)propyl]-2-[1-[3-methoxy-4-(4-methyl-1H-imidazol-1-yl)phenyl]methylidene]-6-methylmorpholin-3-one] as the molecule, how does the IC50 read?
The IC50 was 6 nM.

With `COc1cc(/C=C2\OC(C)(C)CN([C@H](c3cc(F)c(F)c(F)c3)[C@@H](C)O)C2=O)ccc1-n1cnc(C)c1` [Example 27, (Z)-4-[(1R,2R)-2-hydroxy-1-(3,4,5-trifluorophenyl)propyl]-2-[1-[3-methoxy-4-(4-methyl-1H-imidazol-1-yl)phenyl]methylidene]-6,6-dimethylmorpholin-3-one] as the molecule, how does the IC50 read?
Its IC50 is 5 nM.

For `COc1cc(/C=C2\OC(C)(C)CN([C@@H](CO)c3ccc(F)cc3)C2=O)ccc1-n1cnc(C)c1` [Example 28, (Z)-4-[(R)-1-(4-fluorophenyl)-2-hydroxyethyl]-2-[1-[3-methoxy-4-(4-methyl-1H-imidazol-1-yl)phenyl]methylidene]-6,6-dimethylmorpholin-3-one], which IC50 is on record?
The IC50 was 16 nM.

Which IC50 does the source give for `COc1cc(/C=C2\O[C@H](C)CN([C@H](c3cc(F)c(F)c(F)c3)[C@@H](C)O)C2=O)ccc1-n1cnc(C)c1` [Example 29, (Z)-(6R)-4-[(1R,2R)-2-hydroxy-1-(3,4,5-trifluorophenyl)propyl]-2-[1-[3-methoxy-4-(4-methyl-1H-imidazol-1-yl)phenyl]methylidene]-6-methylmorpholin-3-one] here?
The IC50 was 23 nM.

For `COc1cc(/C=C2\OCCN([C@H](c3cc(F)c(F)c(F)c3)[C@@H](C)O)C2=O)ccc1-n1cnc(C)c1` [Example 30, (Z)-4-[(1R,2R)-2-hydroxy-1-(3,4,5-trifluorophenyl)propyl]-2-[1-[3-methoxy-4-(4-methyl-1H-imidazol-1-yl)phenyl]methylidene]morpholin-3-one], which IC50 is on record?
The IC50 was 54 nM.

How did the IC50 turn out when `COc1cc(/C=C2\OCCN([C@H](c3ccc(F)c(F)c3)[C@@H](C)O)C2=O)ccc1-n1cnc(C)c1` [Example 31, (Z)-4-[(1R,2R)-1-(3,4-difluorophenyl)-2-hydroxypropyl]-2-[1-[3-methoxy-4-(4-methyl-1H-imidazol-1-yl)phenyl]methylidene]morpholin-3-one] was run?
Its IC50 is 31 nM.

With `COc1cc(/C=C2\O[C@@H](C)CN([C@H](c3ccc(F)cc3)[C@@H](C)O)C2=O)ccc1-n1cnc(C)c1` [Example 32, (Z)-(S)-4-[(1R,2R)-1-(4-fluorophenyl)-2-hydroxypropyl]-2-[1-[3-methoxy-4-(4-methyl-1H-imidazol-1-yl)phenyl]methylidene]-6-methylmorpholin-3-one] as the molecule, how does the IC50 read?
Its IC50 is 41 nM.

For `COc1cc(/C=C2\OC(C)(C)CN([C@H](c3ccc(F)cc3)[C@@H](C)O)C2=O)ccc1-n1cnc(C)c1` [Example 33, (Z)-4-[(1R,2R)-1-(4-fluorophenyl)-2-hydroxypropyl]-2-[1-[3-methoxy-4-(4-methyl-1H-imidazol-1-yl)phenyl]methylidene]-6,6-dimethylmorpholin-3-one], which IC50 is on record?
The IC50 was 63 nM.

`COc1cc(/C=C2\O[C@@H](C)CN([C@H](c3ccc(F)c(F)c3)[C@@H](C)O)C2=O)ccc1-n1cnc(C)c1` [Example 34, (Z)-(S)-4-[(1R,2R)-1-(3,4-difluorophenyl)-2-hydroxypropyl]-2-[1-[3-methoxy-4-(4-methyl-1H-imidazol-1-yl)phenyl]methylidene]-6-methylmorpholin-3-one] was tested. Which IC50 did it give?
Its IC50 is 23 nM.

With `COc1cc(/C=C2\OC(C)(C)CN([C@H](c3ccc(F)c(F)c3)[C@@H](C)O)C2=O)ccc1-n1cnc(C)c1` [Example 35, (Z)-4-[(1R,2R)-1-(3,4-difluorophenyl)-2-hydroxypropyl]-2-[1-[3-methoxy-4-(methylimidazol-1-yl)phenyl]methylidene]-6,6-dimethylmorpholin-3-one] as the molecule, how does the IC50 read?
The IC50 was 23 nM.

Which IC50 does the source give for `COc1cc(/C=C2\O[C@@H](C)CN([C@](C)(CO)c3cc(F)c(F)c(F)c3)C2=O)ccc1-n1cnc(C)c1` [Example 36, (Z)-(S)-4-[(S)-2-hydroxy-1-methyl-1-(3,4,5-trifluorophenyl)ethyl]-2-[1-[3-methoxy-4-(4-methyl-1H-imidazol-1-yl)phenyl]methylidene]-6-methylmorpholin-3-one] here?
Its IC50 is 109 nM.

With `COc1cc(/C=C2\O[C@@H](C)CN([C@@H](C)c3cc(F)c(F)c(F)c3)C2=O)ccc1-n1cnc(C)c1` [Example 37, (Z)-(6S)-2-[1-[3-methoxy-4-(4-methyl-1H-imidazol-1-yl)phenyl]methylidene]-6-methyl-4-[(S)-1-(3,4,5-trifluorophenyl)ethyl]morpholin-3-one] as the molecule, how does the IC50 read?
The IC50 was 20 nM.

With `COc1cc(/C=C2\O[C@@H](C)CN(C(C)(C)c3ccc(F)cc3)C2=O)ccc1-n1cnc(C)c1` [Example 38, (Z)-(6S)-4-[1-(4-fluorophenyl)-1-methylethyl]-2-[1-[3-methoxy-4-(4-methyl-1H-imidazol-1-yl)phenyl]methylidene]-6-methylmorpholin-3-one] as the molecule, how does the IC50 read?
Its IC50 is 52 nM.

Which IC50 does the source give for `COc1cc(/C=C2\O[C@@H](C)CN(C3(c4ccc(F)cc4)CC3)C2=O)ccc1-n1cnc(C)c1` [Example 39, (Z)-(6S)-4-[1-(4-fluorophenyl)cyclopropyl]-2-[1-[3-methoxy-4-(4-methyl-1H-imidazol-1-yl)phenyl]methylidene]-6-methylmorpholin-3-one] here?
Its IC50 is 130 nM.

For `COc1cc(/C=C2\OC[C@H]3CCC[C@@H](c4cc(F)c(F)c(F)c4)N3C2=O)ccc1-n1cnc(C)c1` [Example 40], which IC50 is on record?
Its IC50 is 100 nM.

With `COc1cc(/C=C2\OC[C@H]3CCC[C@@H](c4ccc(F)c(F)c4)N3C2=O)ccc1-n1cnc(C)c1` [Example 41] as the molecule, how does the IC50 read?
Its IC50 is 141 nM.

How did the IC50 turn out when `COc1cc(/C=C2\O[C@@H](C)CN([C@@H](C)c3ccnc(Cl)c3)C2=O)ccc1-n1cnc(C)c1` [Example 51, (Z)-(S)-4-[(S)-1-(2-chloropyridin-4-yl)ethyl]-2-[1-[3-methoxy-4-(4-methyl-1H-imidazol-1-yl)phenyl]methylidene]-6-methylmorpholin-3-one] was run?
Its IC50 is 67 nM.

For `COc1cc(/C=C2\O[C@@H](C)CN([C@@H](C)c3ccnc(Cl)c3F)C2=O)ccc1-n1cnc(C)c1` [Example 52, (Z)-(S)-4-[(S)-1-(2-chloro-3-fluoropyridin-4-yl)ethyl]-2-[1-[3-methoxy-4-(4-methyl-1H-imidazol-1-yl)phenyl]methylidene]-6-methylmorpholin-3-one], which IC50 is on record?
The IC50 was 86 nM.

Which IC50 does the source give for `COc1cc(/C=C2\O[C@@H](C)CN([C@@H](C)c3cc(F)nc(F)c3)C2=O)ccc1-n1cnc(C)c1` [Example 53, (Z)-(S)-4-[(S)-1-(2,6-difluoropyridin-4-yl)ethyl]-2-[1-[3-methoxy-4-(4-methyl-1H-imidazol-1-yl)phenyl]methylidene]-6-methylmorpholin-3-one] here?
The IC50 was 40 nM.

Which IC50 does the source give for `COc1cc(/C=C2\OC(C)(C)CN([C@@H](C)c3ccnc(Cl)c3)C2=O)ccc1-n1cnc(C)c1` [Example 54, (Z)-4-[(S)-1-(2-chloropyridin-4-yl)ethyl]-2-[1-[3-methoxy-4-(4-methyl-1H-imidazol-1-yl)phenyl]methylidene]-6,6-dimethylmorpholin-3-one] here?
The IC50 was 74 nM.

With `COc1cc(/C=C2\OC(C)(C)CN([C@@H](C)c3ccc(F)nc3F)C2=O)ccc1-n1cnc(C)c1` [Example 55, (Z)-4-[(S)-1-(2,6-difluoropyridin-3-yl)ethyl]-2-[1-[3-methoxy-4-(4-methyl-1H-imidazol-1-yl)phenyl]methylidene]-6,6-dimethylmorpholin-3-one] as the molecule, how does the IC50 read?
The IC50 was 111 nM.
